Laboratory results as given in ChEMBL document CHEMBL6182851, “Discovery of dual CDK4/6 and BRD4 inhibitor as apoptosis and autophagy inducers against NSCLC in vitro and in vivo” (Eur J Med Chem, 2025).
Active and inactive are the calls of the source. The rule behind the calls is not given here.

Experiments:
[1] = tested on: NCI-H460; test: Antiproliferative activity against human NCI-H460 cells assessed as reduction in EdU positive cells incubated for 24 hrs by EdU incorporation assay; format: functional, cell-based; details: dose 2-8 µM
[2] = tested on: NCI-H460; test: Antiproliferative activity against human NCI-H460 cells assessed as decrease in c-myc expression at 2 to 8 uM treated for 24 hrs by immunofluorescence analysis; format: functional, cell-based; details: dose 2-8 µM
[3] = tested on: NCI-H460; test: Induction of apoptosis in human NCI-H460 cells assessed as early apoptotic cells at 2 uM incubated for 48 hrs by Annexin V-PE/7-AAD staining based flow cytometric analysis (reference value: 3.58 %); format: functional
[4] = tested on: NCI-H460; test: Induction of apoptosis in human NCI-H460 cells assessed as late apoptotic cells at 2 uM incubated for 48 hrs by Annexin V-PE/7-AAD staining based flow cytometric analysis (reference value: 3.76 %); format: functional
[5] = tested on: NCI-H460; test: Induction of apoptosis in human NCI-H460 cells assessed as necrotic cells at 2 uM incubated for 48 hrs by Annexin V-PE/7-AAD staining based flow cytometric analysis (reference value: 0.79 %); format: functional
[6] = tested on: NCI-H460; test: Induction of apoptosis in human NCI-H460 cells assessed as necrotic cells at 4 uM incubated for 48 hrs by Annexin V-PE/7-AAD staining based flow cytometric analysis (reference value: 0.79 %); format: functional
[7] = tested on: NCI-H460; test: Induction of cell cycle arrest in human NCI-H460 cells assessed as accumulation of cells at S phase at 2 uM incubated for 48 hrs by PI staining based flow cytometric analysis (reference value: 33.3 %); format: functional
[8] = tested on: NCI-H460; test: Induction of cell cycle arrest in human NCI-H460 cells assessed as accumulation of cells at G2 phase at 2 uM incubated for 48 hrs by PI staining based flow cytometric analysis (reference value: 11.0 %); format: functional
[9] = tested on: NCI-H460; test: Induction of cell cycle arrest in human NCI-H460 cells assessed as accumulation of cells at G1 phase at 4 uM incubated for 48 hrs by PI staining based flow cytometric analysis (reference value: 56.7 %); format: functional
[10] = tested on: NCI-H460; test: Induction of cell cycle arrest in human NCI-H460 cells assessed as accumulation of cells at S phase at 4 uM incubated for 48 hrs by PI staining based flow cytometric analysis (reference value: 33.3 %); format: functional
[11] = tested on: NCI-H460; test: Induction of cell cycle arrest in human NCI-H460 cells assessed as accumulation of cells at G2 phase at 4 uM incubated for 48 hrs by PI staining based flow cytometric analysis (reference value: 11.0 %); format: functional
[12] = tested on: NCI-H460; test: Induction of cell cycle arrest in human NCI-H460 cells assessed as accumulation of cells at G1 phase at 8 uM incubated for 48 hrs by PI staining based flow cytometric analysis (reference value: 56.7 %); format: functional
[13] = tested on: NCI-H460; test: Induction of cell cycle arrest in human NCI-H460 cells assessed as accumulation of cells at S phase at 8 uM incubated for 48 hrs by PI staining based flow cytometric analysis (reference value: 33.3 %); format: functional
[14] = tested on: NCI-H460; test: Induction of cell cycle arrest in human NCI-H460 cells assessed as accumulation of cells at G2 phase at 8 uM incubated for 48 hrs by PI staining based flow cytometric analysis (reference value: 11.0 %); format: functional
[15] = tested on: MCF-10A; test: Cytotoxicity against human MCF-10A cells assessed as cell viability at 5 to 10 uM incubated for 48 hrs by MTT assay; format: toxicity, cell-based; details: dose 5-10 µM
[16] = tested on: NCI-H460; test: Induction of autophagy in human NCI-H460 cells assessed as increase in LC3-II expression incubated for 48 hrs by Western blotting analysis; format: functional, cell-based; details: dose 2-8 µM
[17] = tested on: NCI-H460; test: Induction of autophagy in human NCI-H460 cells assessed as increase in yellow fluorescence incubated for 24 hrs by immunofluorescence analysis; format: functional, cell-based; details: dose 2-8 µM
[18] = tested on: NCI-H460; test: Induction of autophagy in human NCI-H460 cells assessed as upregulation of beclin 1 level; format: functional, cell-based
[19] = tested on: NCI-H460; test: Antitumor activity against human NCI-H460 cells xenografted in female BALB/c nude mouse assessed as tumor growth inhibition at 25 mg/kg, ip administered for 21 consecutive days relative to control; format: functional; details: NCI-H460, 504 h, time 21 day, read-out: TGI
[20] = tested on: NCI-H460; test: Antitumor activity against human NCI-H460 cells xenografted in female BALB/c nude mouse assessed as reduction in c-Myc expression at 50 mg/kg, ip administered for 21 consecutive days by immunohistochemical analysis; format: functional, organism-based; details: time 21.0 day
[21] = tested on: NCI-H460; test: Cytotoxicity against human NCI-H460 cells measured up to 8 days; format: functional, cell-based; details: dose 2-8 µM, time <= 8.0 day
[22] = tested on: L02; test: Cytotoxicity against human LO2 cells measured up to 8 days; format: toxicity, cell-based; details: l02, 192 h, time < 8 day
[23] = tested on: NCI-H460; test: Antitumor activity against human NCI-H460 cells xenografted in female BALB/c nude mouse at 25 mg/kg, ip administered for 21 consecutive days; format: functional, organism-based; details: time 21.0 day
[24] = Toxicity in mouse assessed as animal mortality at 100 to 400 mg/kg, ip measured for 21 days; format: organism-based; details: in vivo, 504 h, dose 100-400 mg/kg, time 21 day
[25] = Toxicity in mouse assessed as histological change in lung at 400 mg/kg, ip measured for 21 days by H and E staining based analysis; format: organism-based; details: in vivo, 504 h, time 21 day
[26] = Toxicity in mouse assessed as histological change in kidney at 400 mg/kg, ip measured for 21 days by H and E staining based analysis; format: organism-based; details: in vivo, 504 h, time 21 day
[27] = tested on: A549; test: cells; details: Homo sapiens, A549, 48 h
Description: Antitumor activity against human A549 cells assessed as inhibition of cell viability incubated for 48 hrs by MTT assay

[28] = tested on: NCI-H1299; test: cells; details: Homo sapiens, NCI-H1299, 48 h
Description: Antitumor activity against human NCI-H1299 cells assessed as inhibition of cell viability incubated for 48 hrs by MTT assay

[29] = tested on: NCI-H460; test: cells; details: Homo sapiens, NCI-H460, 48 h
Description: Antitumor activity against human NCI-H460 cells assessed as inhibition of cell viability incubated for 48 hrs by MTT assay

With `COc1cc(-c2nc3ccc(F)cc3c(=O)[nH]2)cc(OC)c1OCC(=O)N1CCN(c2ccc(Nc3ncc4cc(C(=O)N(C)C)n(C5CCCC5)c4n3)nc2)CC1` the Activity [1] was “Dose-dependent-effect”, the Activity [2] was “Active” and the Activity [3] was 9.06%. For the same molecule, the Activity [4] was 4.55%, the Activity [5] was 1.6% and the Activity [6] was 1.06%. It also gave an Activity [7] of 27%, an Activity [8] of 11.4% and an Activity [9] of 71.1%. The Activity [10] was 18.8%, the Activity [11] was 7.15% and the Activity [12] was 80.8%. For the same molecule, the Activity [13] was 15.8%, the Activity [14] was 3.41% and the Activity [15] was “Non-toxic”. For the same molecule, the Activity [16] was “Dose-dependent-effect”, the Activity [17] was “Dose-dependent-effect” and the Activity [18] was “Active”. For the same molecule, the inhibition in vivo at 25 mg/kg [19] was 67.8%, the Activity [20] was “Active” and the Activity [21] was “Time-dependent-effect”. For the same molecule, the Activity [22] was “Non-toxic”, the Activity [23] was “Active” and the Activity [24] was “Non-toxic”. The Activity [25] was “Non-toxic”, the Activity [26] was “Non-toxic” and the IC50 [27] was 4.59 µM. It also gave an IC50 [28] of 4.01 µM and an IC50 [29] of 2.21 µM.
